Results reported in US7189702B2, “Glucopyranosyloxypyrazole derivatives and medicinal use thereof” (Kissei Pharmaceutical Co., Ltd., priority 2001, dated 2007).

target: T1, human SGLT2 (Homo sapiens, UniProt P31639, I433V); assay: Assay for inhibitory effect on human SGLT2 activity (uptake of methyl-α-D-glucopyranoside); type: cell-based; conditions: inhibition of methyl-α-D-(U-14C)glucopyranoside uptake, COS-7 cells expressing transiently human SGLT2, 37° C., 2 hours
T1 construct: expressed in transfected cells; host or cells: COS-7 cells (RIKEN CELL BANK RCB0539), transient, electroporation of KL29
T1 sequence (P31639 1-672 I433V): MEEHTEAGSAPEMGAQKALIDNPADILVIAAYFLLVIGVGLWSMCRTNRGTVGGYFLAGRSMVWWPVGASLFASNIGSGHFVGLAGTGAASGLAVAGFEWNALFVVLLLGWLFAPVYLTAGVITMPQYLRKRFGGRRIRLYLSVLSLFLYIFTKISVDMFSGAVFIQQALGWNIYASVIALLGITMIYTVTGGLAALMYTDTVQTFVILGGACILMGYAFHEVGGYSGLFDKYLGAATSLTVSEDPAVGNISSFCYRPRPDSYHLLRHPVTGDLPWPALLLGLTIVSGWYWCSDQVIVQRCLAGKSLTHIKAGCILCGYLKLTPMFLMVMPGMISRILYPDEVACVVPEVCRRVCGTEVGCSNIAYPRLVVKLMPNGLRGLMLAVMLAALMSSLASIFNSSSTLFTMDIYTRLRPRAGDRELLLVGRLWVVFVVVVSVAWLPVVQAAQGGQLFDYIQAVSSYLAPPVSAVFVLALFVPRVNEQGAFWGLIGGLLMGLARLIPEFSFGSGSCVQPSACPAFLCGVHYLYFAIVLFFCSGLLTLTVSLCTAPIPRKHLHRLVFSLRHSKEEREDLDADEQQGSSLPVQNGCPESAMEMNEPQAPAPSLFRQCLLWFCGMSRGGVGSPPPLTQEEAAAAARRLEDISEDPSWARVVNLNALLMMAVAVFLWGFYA
Method: Assay for Inhibitory Effect on Human SGLT2 Activity
1) Construction of the Plasmid Vector Expressing Human SGLT2
Preparation of the cDNA library for PCR amplification was performed by reverse transcription of a total RNA deprived from human kidney (Ori gene) with oligo dT as the primer, using SUPERSCRIPT Preamplification System (Gibco-BRL: LIFE TECHNOLOGIES). The DNA fragment coding for human SGLT2 was amplified by the PCR reaction, in which the human kidney cDNA library described above was used as the template and the following oligo nucleotides 0702F and 0712R, presented as Sequence Numbers 1 and 2 respectively, were used as the primers. The amplified DNA fragment was ligated into pCR-Blunt (Invitrogen), a vector for cloning, according to standard method of the kit. The Escherichia coli HB101 was transformed according to usual method and then selection of the transformants was performed on the LB agar medium containing 50 μg/mL of kanamycin. After plasmid DNA was extracted and purified from the one of the transformants, amplifying of the DNA fragment coding for human SGLT2 was performed by the PCR reaction, in which the following oligo nucleotides 0714F and 0715R, presented as Sequence Numbers 3 and 4 respectively, were used as the primers. The amplified DNA fragment was digested with restriction enzymes, Xho I and Hind III, and then purified with Wizard Purification System (Promega). This purified DNA fragment was inserted at the corresponding restriction sites of pcDNA3.1 (−) Myc/His-B (Invitrogen), a vector for expressing of fusion protein. The Escherichia coli HB101 was transformed according to usual method and then selection of the transformant was performed on the LB agar medium containing 100 μg/mL of ampicillin. After plasmid DNA was extracted and purified from this transformant, the base sequence of the DNA fragment inserted at the multi-cloning sites of the vector pcDNA3.1 (−) Myc/His-B was analyzed. […] Sequentially, a clone in which valine is substituted for isoleucine-433 was obtained. This plasmid vector expressing human SGLT2 in which the peptide presented as Sequence Number 5 is fused to the carboxyl terminal alanine residue was designated KL29.
2) Preparation of the Cells Expressing Transiently Human SGLT2
KL29, the plasmid coding human SGLT2, was transfected into COS-7 cells (RIKEN CELL BANK RCB0539) by electroporation. Electroporation was performed with GENE PULSER II (Bio-Rad Laboratories) under the condition: 0.290 kV, 975 μF, 2×10^6 cells of COS-7 cell and 20 μg of KL29 in 500 μL of OPTI-MEM I medium (Gibco-BRL: LIFE TECHNOLOGIES) in the 0.4 cm type cuvette. After the gene transfer, the cells were harvested by centrifugation and resuspended with OPTI-MEM I medium (1 mL/cuvette). To each well in 96-wells plate, 125 μL of this cell suspension was added. After overnight culture at 37° C. under 5% CO2, 125 μL of DMEM medium which is containing 10% of fetal bovine serum (Sanko Jyunyaku), 100 units/mL sodium penicillin G (Gibco-BRL: LIFE TECHNOLOGIES), and 100 μg/mL streptomycin sulfate (Gibco-BRL: LIFE TECHNOLOGIES) was added to each well. These cells were cultured until the next day and then they were used for the measurement of the inhibitory activity against the uptake of methyl-α-D-glucopyranoside.
3) Measurement of the Inhibitory Activity Against the Uptake of methyl-α-D-glucopyranoside
After a test compound was dissolved in dimethyl sulfoxide and diluted with the uptake buffer (a pH 7.4 buffer containing 140 mM sodium chloride, 2 mM potassium chloride, 1 mM calcium chloride, 1 mM magnesium chloride, 5 mM methyl-α-D-glucopyranoside, 10 mM 2-[4-(2-hydroxyethyl)-1-piperazinyl]ethane sulfonic acid and 5 mM tris(hydroxymethyl)aminomethane), each diluent was used as test sample for measurement of the inhibitory activity. […]

Question: With `Cc1[nH]nc(O[C@@H]2O[C@H](CO)[C@@H](O)[C@H](O)[C@H]2O)c1Cc1ccc(C=C2CC2)cc1` [Example 20, 3-(β-D-Glucopyranosyloxy)-5-methyl-4-{[4-(cyclopropylidenemethyl)phenyl]methyl}-1H-pyrazole] as the compound, how does the IC50 read?
Answer: The IC50 was 15 nM.

Question: With `Cc1[nH]nc(O[C@@H]2O[C@H](CO)[C@@H](O)[C@H](O)[C@H]2O)c1Cc1ccc(C2CC2)cc1` [Example 21, 3-(β-D-Glucopyranosyloxy)-5-methyl-4-[(4-cyclopropylphenyl)methyl]-1H-pyrazole] as the compound, how does the IC50 read?
Answer: Its IC50 is 18 nM.

Question: With `CC/C=C/c1ccc(Cc2c(O[C@@H]3O[C@H](CO)[C@@H](O)[C@H](O)[C@H]3O)n[nH]c2C)cc1` [Example 22, (E)-4-{[4-(But-1-en-1-yl)phenyl]methyl}-3-(β-D-glucopyranosyloxy)-5-methyl-1H-pyrazole] as the compound, how does the IC50 read?
Answer: The IC50 was 41 nM.

Question: Which IC50 does the source give for `Cc1[nH]nc(O[C@@H]2O[C@H](CO)[C@@H](O)[C@H](O)[C@H]2O)c1Cc1ccc(-c2nccs2)cc1` [Example 23, 3-(β-D-Glucopyranosyloxy)-5-methyl-4-{[4-(thiazol-2-yl)phenyl]methyl}-1H-pyrazole] here?
Answer: The IC50 was 46 nM.

Question: With `OCCCc1ccc(Cc2c(O[C@@H]3O[C@H](CO)[C@@H](O)[C@H](O)[C@H]3O)n[nH]c2C(F)(F)F)cc1` [Example 24, 3-(β-D-Glucopyranosyloxy)-4-{[4-(3-hydroxypropyl)phenyl]methyl}-5-trifluoromethyl-1H-pyrazole] as the compound, how does the IC50 read?
Answer: The IC50 was 57 nM.

Question: With `CC(C)=Cc1ccc(Cc2c(O[C@@H]3O[C@H](CO)[C@@H](O)[C@H](O)[C@H]3O)n[nH]c2C)cc1` [Example 25, 3-(β-D-Glucopyranosyloxy)-5-methyl-4-{[4-(2-methylprop-1-en-1-yl)phenyl]methyl}-1H-pyrazole] as the compound, how does the IC50 read?
Answer: The IC50 was 65 nM.

Question: For `Cc1[nH]nc(O[C@@H]2O[C@H](CO)[C@@H](O)[C@H](O)[C@H]2O)c1Cc1ccc(-c2ccc(F)cc2)cc1` [Example 26, 4-{[4-(4-Fluorophenyl)phenyl]methyl}-3-(β-D-glucopyranosyloxy)-5-methyl-1H-pyrazole], which IC50 is on record?
Answer: The IC50 was 150 nM.

Question: With `Cc1[nH]nc(O[C@@H]2O[C@H](CO)[C@@H](O)[C@H](O)[C@H]2O)c1Cc1ccc(OC2CCC2)cc1` [Example 27, 4-{[4-(Cyclobutyloxy)phenyl]methyl}-3-(β-D-glucopyranosyloxy)-5-methyl-1H-pyrazole] as the compound, how does the IC50 read?
Answer: The IC50 was 210 nM.

Question: With `Cc1c(Cc2ccc(C3CC3)cc2)c(O[C@@H]2O[C@H](CO)[C@@H](O)[C@H](O)[C@H]2O)nn1CC1CC1` [Example 32, 3-(β-D-Glucopyranosyloxy)-5-methyl-1-(cyclopropylmethyl)-4-[(4-cyclopropylphenyl)methyl]-1H-pyrazole] as the compound, how does the IC50 read?
Answer: Its IC50 is 26 nM.

Question: With `CSc1ccc(Cc2c(O[C@@H]3O[C@H](CO)[C@@H](O)[C@H](O)[C@H]3O)nn(CC3CC3)c2C)cc1` [Example 38, 1-(Cyclopropylmethyl)-3-(β-D-glucopyranosyloxy)-5-methyl-4-[(4-methylthiophenyl)methyl]-1H-pyrazole] as the compound, how does the IC50 read?
Answer: The IC50 was 45 nM.

Question: With `CCc1ccc(Cc2c(O[C@@H]3O[C@H](CO)[C@@H](O)[C@H](O)[C@H]3O)nn(CCCO)c2C)cc1` [Example 39, 4-[(4-Ethylphenyl)methyl]-3-(β-D-glucopyranosyloxy)-1-(3-hydroxypropyl)-5-methyl-1H-pyrazole] as the compound, how does the IC50 read?
Answer: The IC50 was 47 nM.

Question: For `CSc1ccc(Cc2c(C(F)(F)F)[nH][nH]c2=O)cc1` [WAY-123783, reference compound], which IC50 is on record?
Answer: The IC50 was greater than 100000 nM.

same assay, conditions: statement in words

Question: With `CSc1ccc(Cc2c(C(F)(F)F)[nH][nH]c2=O)cc1` [WAY-123783, reference compound] as the compound, how does the “inhibitory activity in human SGLT2” value read?
Answer: Its value is “extremely weak”.

tested on: not given; assay: not given; conditions: normal mice; J. Med. Chem., Vol. 39, pp. 3920–3928 (1996); cited from earlier work

Question: For `CSc1ccc(Cc2c(C(F)(F)F)[nH][nH]c2=O)cc1` [WAY-123783, reference compound], which “amount of excreted glucose” value is on record?
Answer: The value was “increased”.
